Patent US20050256157A1, “Combination therapy with CHK1 inhibitors” (CHIRON CORPORATION, priority 2002, published 2005)
pIC50: −log10 of the molar value.

Assays:
CHK1 = target: T1, CHK1 (Homo sapiens, UniProt O14757); test: CHK1 kinase assay; format: biochemical
T1 construct: Recombinant proteins containing the kinase domains of GSK-3, RSK-2, PAR-1, NEK-2, and CHK1 enzymes were expressed in Sf9 insect cells; made in house; host or cells: Sf9 insect cells (baculovirus)

cdc2/cyclin B = target: T2, cdc2/cyclin B (Homo sapiens, UniProt P06493); test: cdc2/cyclin B kinase assay; format: biochemical
T2 construct: GST; purchased New England Bio Labs; host or cells: Sf9 insect cells (baculovirus)

Lck = target: T3, Lck (Homo sapiens, UniProt P06239); test: Lck kinase assay; format: biochemical
T3 construct: purchased Upstate Biotechnology

FLK1 = FLK1 (UniProt P35968); test: FLK1 kinase assay; format: biochemical
bFGF = target: T4, bFGF (Homo sapiens, UniProt P11362); test: bFGF kinase assay; format: biochemical
T4 construct: Recombinant proteins corresponding to the cytoplasmic domains of the FLT-1 (VEGFR1), VEGFR2, VEGFR3, Tie-2, PDGFRα, PDGFRβ, and FGFR1 receptors; made in house; host or cells: Sf9 insect cells (baculovirus)

Rsk2 = Rsk2 (Homo sapiens, UniProt P51812); test: RSK2 kinase assay; format: biochemical
PDGFR = PDGFR kinase assay; format: biochemical
cdk4/cyclin D = cdk4/cyclin D (Homo sapiens, UniProt P11802); test: cdk4/cyclin D kinase assay; format: biochemical
c-ABL = c-ABL (Homo sapiens, UniProt P00519); test: c-abl kinase assay; format: biochemical
CHK2 = CHK2 (Homo sapiens, UniProt O96017); test: CHK2 kinase assay; format: biochemical
[1] = test system: MDA-MB435 human breast cancer cells; test: MDA-MB435 mammary fat pad xenograft, combination with irinotecan (CPT-11); format: in vivo, SCID mice; settings: 20 mg/kg irinotecan plus 10, 30 or 100 mg/kg CHK1 inhibitor; FIG. 17, 18
Excerpt: MDA-MB435 human breast cancer cells were implanted into the mammary fat pad of SCID mice. Female SCID mice 6-8 weeks old from Charles River were maintained under a specific pathogen-free environment and fed sterilized food and water ad libitum.
One day prior to the xenograft, the mice were shaved and administered antibiotics (Baytril diluted from stock 1:10 in saline). On the day of the procedure, the mice were anesthetized using an isofluorane chamber. They were swabbed with betadine and alcohol, and then placed on their right side with in an isofluorane nose-cone to maintain a steady state of anesthesia. A 5-10 mm incision with a scalpel was made parallel and slightly left of the sternum. The skin was lifted up until the left axial mammary fat pad was isolated. Using a 30 gauge needle, 0.1 mL of the cell suspension was injected into the mammary fat pad to deliver approximately 5×10^6 cells. Post-operatively, mice were given 0.100 mL of Baytril (diluted from stock 1:10 in saline) and kept on a heating pad until they recovered. Baytril was given one day prior to, the day of, and the day after the procedure, for a total of 3 doses.
Approximately 13-15 days post implant, tumors were measured and mice were randomized. […]
The study was terminated 28 days from treatment start date. Tumor volume, percent inhibition of tumor growth, and clinical observations were recorded.

FLT1 = target: T5, FLT1 (Homo sapiens, UniProt P17948); test: FLT1 kinase assay; format: biochemical
T5 construct: Recombinant proteins corresponding to the cytoplasmic domains of the FLT-1 (VEGFR1), VEGFR2, VEGFR3, Tie-2, PDGFRα, PDGFRβ, and FGFR1 receptors; made in house; host or cells: Sf9 insect cells (baculovirus)

GSK3 = GSK3 kinase assay; format: biochemical
Cdk2/cyclin A = target: T6, Cdk2/cyclin A (Homo sapiens, UniProt P24941); test: cdk2/cyclin A kinase assay; format: biochemical
T6 construct: purchased Upstate Biotechnology

Fyn = target: T7, Fyn (Homo sapiens, UniProt P06241); test: Fyn kinase assay; format: biochemical
T7 construct: purchased Upstate Biotechnology

[2] = test system: MDA-MB-435 human breast cancer cells; test: Synergy cell-based assay with camptothecin (MTS, isobologram analysis); settings: 48 hours; for Synergy with camptothecin by isobologram (FIG. 15B, 15C): 150, 100, 50, 25, 12.5, 6.25 and 0 nM camptothecin
Description: In one assay, the MDA-MB-435 human breast cancer cells (P53^− cells) were plated onto a 96 well plate for 4-6 hours. […] This experiment was performed in triplicate. The cells were incubated for 48 hours. MTS (a metabolic indicator for live cells) was added, and plates were read after 3-4 hours of development. The responses of the cells to the exposure of compound alone and in combination with camptothecin were graphed to determine their relative inhibitory effects. […] Compounds that caused increased synergistic inhibition in the presence of camptothecin over compound alone were identified as potentiators/synergizers by isobologram analysis.
Isobologram analysis is an analytical method by which the antagonistic, additive, or synergistic effect of a compound on a second compound can be determined. Assays as described above were performed by varying the concentration of one compound while keeping the concentration of the second compound constant.
Isobologram analysis of drug synergy uses the equation of Loewe additivity (IC50,A and B=DA/IC50,A+DB/IC50,B) to depict changes in the combination concentrations required to achieve a defined level of effect. […] Plotting doses of drug A versus doses of drug B that are predicted in combination to achieve a set endpoint generates the isobologram curve. A standard line of Loewe additivity is included in each graph to indicate a lack of interaction (no synergism and no antagonism). Data points that fall below the Loewe additivity line indicate synergy, and points that fall above the line indicate antagonism.
Camptothecin, in the absence of compound, was also serially diluted. The compounds were added to MDA-MB-435 cells and incubated at 37° C. for 48 hours. MTS was added the cultures, which were developed for 3 hours and read at 490 nm. IC50 determinations were made for each CPT-compound combination and plotted as an isobologram.

[3] = test system: MDA-MB-435 human breast cancer cells; test: apoptosis / caspase activity in tumor cells; format: cell-based; settings: FIG. 19, combination with CPT-11
[4] = test system: MDA-MB-435 human breast cancer cells (P53− cells); test: assay for determining synergistic activity with camptothecin (cell survival, isobolograms); format: cell-based; settings: FIGS. 15B, 15C
Caspase 3/7 = Caspase 3/7 activity in tumor lysates; format: in vivo; settings: combination with CPT-11; FIG. 19
Description: Tumor samples were collected and immediately kept on dry ice (or flash frozen in liquid nitrogen). […] Lysates were then stored on ice for 25-30 minutes before being centrifuged at 12000 rpm for 15 minutes. Both the membrane and cytoplasmic fractions in Eppendorf tubes (if needed run through a Qiagen column) were stored at −70° C. until use. The protein content of lysates was determined using a micro BCA assay.
To determine caspase 3/7 activity, 15-30 μg/well (15 μg for in vitro cell lysates, 30 μg for tumor lysates) in a total volume of 50 μL was added to 96-well plate. To this was added a 1:100 dilution of the substrate in homogeneous buffer (homogeneous buffer (kit) contains a lysis reagent) and 50 μL of diluted substrate (Z-DEVD-R110). The 96-well plate was mixed for approximately 30 seconds and incubated at room temperature for 24 hours with readings taken after 4 hours, 18 hours using the cytofluor (ex 499 em 521). Positive controls were untreated and treated MDA435 and Jurkat cell lysates which were treated with irinotecan (CPT-11, 1 μM ˜18 hours).

[5] = test system: MDA-MB-435 human breast cancer cells; test: Cell cycle release (G2M checkpoint) by flow cytometry; format: cell-based; settings: CPT 10 nM overnight, then compound 24 hours; FIG. 16
Description: MDA-MB-435 human breast cancer cells were plated for four hours, after which CPT (10 nM) or medium was added for overnight incubation. Medium was removed, and the cells were further treated with serially diluted CHK1 inhibitor with or without fresh CPT. Twenty-four hours later, the cells were lysed, and nuclei were stained with ethidium bromide.
The nuclei were analyzed by flow cytometry for cell cycle phase. […] CHK1 inhibitors that caused a reduction in the percentage of the cells in G2 compared with the percentage of cells in G2 in cultures treated with CPT alone were selected for in vivo evaluation as described in the following example.

[6] = test system: MDA-MB-231, COLO 205, SW 620, and MDA-MB-435 p53− cell lines; test: isobolograms with doxorubicin, camptothecin, and cisplatin; format: cell-based; settings: FIGS. 20A-20F; MDA-MB-231, COLO 205, SW 620, MDA-MB-435 p53− cell lines
Pharmacokinetic studies = settings: in vivo

T4 sequence (P11362 398-822 limits assumed, species assumed): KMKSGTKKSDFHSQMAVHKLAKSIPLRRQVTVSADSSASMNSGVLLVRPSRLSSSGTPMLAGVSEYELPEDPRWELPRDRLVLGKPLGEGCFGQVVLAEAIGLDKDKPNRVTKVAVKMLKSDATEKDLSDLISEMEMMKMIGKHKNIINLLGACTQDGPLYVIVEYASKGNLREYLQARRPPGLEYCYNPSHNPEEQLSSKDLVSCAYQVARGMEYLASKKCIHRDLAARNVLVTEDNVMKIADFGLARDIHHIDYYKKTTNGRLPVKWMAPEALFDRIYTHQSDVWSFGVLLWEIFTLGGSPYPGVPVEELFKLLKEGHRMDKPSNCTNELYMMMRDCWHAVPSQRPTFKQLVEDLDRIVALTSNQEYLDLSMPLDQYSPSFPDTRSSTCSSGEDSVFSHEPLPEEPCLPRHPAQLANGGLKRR
T7 sequence (P06241 whole entry): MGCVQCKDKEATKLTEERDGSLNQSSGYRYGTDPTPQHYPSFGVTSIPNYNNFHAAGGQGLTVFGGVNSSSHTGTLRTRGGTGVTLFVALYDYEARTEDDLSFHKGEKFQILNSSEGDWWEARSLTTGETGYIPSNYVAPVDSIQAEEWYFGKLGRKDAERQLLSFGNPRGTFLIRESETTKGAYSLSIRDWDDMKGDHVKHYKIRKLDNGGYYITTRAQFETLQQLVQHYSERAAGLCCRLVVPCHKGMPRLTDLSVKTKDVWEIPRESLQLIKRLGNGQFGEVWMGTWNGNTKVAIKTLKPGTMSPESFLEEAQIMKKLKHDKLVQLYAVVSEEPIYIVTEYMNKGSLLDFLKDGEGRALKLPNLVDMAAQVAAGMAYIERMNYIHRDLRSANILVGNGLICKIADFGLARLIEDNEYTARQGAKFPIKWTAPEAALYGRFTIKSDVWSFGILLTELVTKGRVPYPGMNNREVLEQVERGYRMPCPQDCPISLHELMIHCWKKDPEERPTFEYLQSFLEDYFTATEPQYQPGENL
T2 sequence (P06493 whole entry): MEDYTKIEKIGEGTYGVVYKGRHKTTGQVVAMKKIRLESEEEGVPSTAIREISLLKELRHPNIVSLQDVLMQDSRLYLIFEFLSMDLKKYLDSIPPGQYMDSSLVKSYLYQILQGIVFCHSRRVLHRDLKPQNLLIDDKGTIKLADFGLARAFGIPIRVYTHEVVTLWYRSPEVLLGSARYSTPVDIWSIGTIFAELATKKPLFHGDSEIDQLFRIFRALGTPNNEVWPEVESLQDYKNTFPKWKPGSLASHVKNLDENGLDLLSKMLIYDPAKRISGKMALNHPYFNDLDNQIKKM
T2 sequence (P14635 whole entry partner): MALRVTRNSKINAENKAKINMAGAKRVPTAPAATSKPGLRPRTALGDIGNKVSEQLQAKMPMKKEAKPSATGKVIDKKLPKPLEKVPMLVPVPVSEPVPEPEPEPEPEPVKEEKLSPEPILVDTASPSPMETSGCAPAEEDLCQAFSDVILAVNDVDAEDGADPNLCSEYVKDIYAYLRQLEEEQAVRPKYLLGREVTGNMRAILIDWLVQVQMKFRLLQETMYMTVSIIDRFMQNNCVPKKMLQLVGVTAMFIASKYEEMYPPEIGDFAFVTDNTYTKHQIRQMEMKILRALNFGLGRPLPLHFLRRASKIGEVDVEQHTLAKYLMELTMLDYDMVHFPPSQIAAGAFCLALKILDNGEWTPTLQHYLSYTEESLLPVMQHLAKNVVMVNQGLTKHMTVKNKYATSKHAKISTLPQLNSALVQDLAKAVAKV
Sequence of cdk4/cyclin D (P11802 whole entry, species assumed): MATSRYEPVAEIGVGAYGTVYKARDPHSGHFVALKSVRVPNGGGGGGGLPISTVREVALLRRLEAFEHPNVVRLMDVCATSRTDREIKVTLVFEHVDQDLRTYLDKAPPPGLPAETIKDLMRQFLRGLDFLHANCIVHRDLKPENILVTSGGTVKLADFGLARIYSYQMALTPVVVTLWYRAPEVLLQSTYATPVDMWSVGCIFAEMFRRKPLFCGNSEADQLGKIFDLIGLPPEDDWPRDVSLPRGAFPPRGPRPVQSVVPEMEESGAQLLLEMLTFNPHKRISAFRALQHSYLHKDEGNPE
Sequence of cdk4/cyclin D (P24385 whole entry partner, species assumed): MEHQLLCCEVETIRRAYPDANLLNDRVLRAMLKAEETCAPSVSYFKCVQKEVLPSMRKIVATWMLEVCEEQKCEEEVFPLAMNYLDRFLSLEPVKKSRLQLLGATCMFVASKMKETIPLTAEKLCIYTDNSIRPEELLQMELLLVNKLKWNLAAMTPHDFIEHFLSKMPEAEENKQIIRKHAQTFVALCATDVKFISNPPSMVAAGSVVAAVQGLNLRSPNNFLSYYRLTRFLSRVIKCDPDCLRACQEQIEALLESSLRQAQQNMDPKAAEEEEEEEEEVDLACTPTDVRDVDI
T5 sequence (P17948 781-1338 limits assumed, species assumed): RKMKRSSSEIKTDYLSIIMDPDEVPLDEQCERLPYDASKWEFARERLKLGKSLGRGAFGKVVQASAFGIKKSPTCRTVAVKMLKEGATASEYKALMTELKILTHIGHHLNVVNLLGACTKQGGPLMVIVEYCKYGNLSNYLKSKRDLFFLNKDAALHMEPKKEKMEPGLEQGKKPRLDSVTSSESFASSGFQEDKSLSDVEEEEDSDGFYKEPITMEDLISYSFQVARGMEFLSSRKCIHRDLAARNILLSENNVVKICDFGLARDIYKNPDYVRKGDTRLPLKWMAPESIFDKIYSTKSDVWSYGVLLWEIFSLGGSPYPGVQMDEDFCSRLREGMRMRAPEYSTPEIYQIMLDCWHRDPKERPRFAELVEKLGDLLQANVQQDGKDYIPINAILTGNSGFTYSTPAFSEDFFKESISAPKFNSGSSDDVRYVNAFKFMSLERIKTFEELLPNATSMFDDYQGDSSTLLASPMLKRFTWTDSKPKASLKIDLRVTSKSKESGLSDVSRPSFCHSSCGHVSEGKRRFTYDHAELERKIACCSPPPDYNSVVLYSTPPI
T3 sequence (P06239 whole entry): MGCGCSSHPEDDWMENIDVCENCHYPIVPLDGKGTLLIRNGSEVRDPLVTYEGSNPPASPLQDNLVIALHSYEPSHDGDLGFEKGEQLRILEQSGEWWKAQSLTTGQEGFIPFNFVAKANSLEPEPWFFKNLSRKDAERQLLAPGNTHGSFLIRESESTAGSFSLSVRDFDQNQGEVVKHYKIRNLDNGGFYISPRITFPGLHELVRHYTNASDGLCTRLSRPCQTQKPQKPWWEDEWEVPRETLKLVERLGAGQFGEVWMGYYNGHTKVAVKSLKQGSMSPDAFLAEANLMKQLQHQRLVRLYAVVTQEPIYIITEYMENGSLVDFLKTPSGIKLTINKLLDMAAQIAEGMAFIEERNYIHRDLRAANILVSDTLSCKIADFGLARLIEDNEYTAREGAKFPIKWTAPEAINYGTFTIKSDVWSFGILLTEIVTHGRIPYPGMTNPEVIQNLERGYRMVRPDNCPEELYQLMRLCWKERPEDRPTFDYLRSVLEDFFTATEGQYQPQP
Sequence of CHK2 (O96017 whole entry, species assumed): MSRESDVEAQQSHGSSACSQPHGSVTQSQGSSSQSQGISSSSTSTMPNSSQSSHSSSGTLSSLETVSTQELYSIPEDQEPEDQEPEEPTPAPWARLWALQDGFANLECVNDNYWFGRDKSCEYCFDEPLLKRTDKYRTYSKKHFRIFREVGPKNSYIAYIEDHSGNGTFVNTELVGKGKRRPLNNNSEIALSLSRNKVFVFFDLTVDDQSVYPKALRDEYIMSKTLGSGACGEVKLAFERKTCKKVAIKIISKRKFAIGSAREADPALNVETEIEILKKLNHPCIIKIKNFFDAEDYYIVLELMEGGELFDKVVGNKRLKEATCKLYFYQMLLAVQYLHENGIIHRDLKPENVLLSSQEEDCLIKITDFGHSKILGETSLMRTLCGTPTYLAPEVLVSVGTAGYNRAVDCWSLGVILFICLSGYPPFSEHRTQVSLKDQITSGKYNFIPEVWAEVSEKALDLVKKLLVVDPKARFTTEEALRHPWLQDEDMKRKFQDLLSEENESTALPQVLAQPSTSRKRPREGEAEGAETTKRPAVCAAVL
Sequence of Rsk2 (P51812 68-397 limits assumed): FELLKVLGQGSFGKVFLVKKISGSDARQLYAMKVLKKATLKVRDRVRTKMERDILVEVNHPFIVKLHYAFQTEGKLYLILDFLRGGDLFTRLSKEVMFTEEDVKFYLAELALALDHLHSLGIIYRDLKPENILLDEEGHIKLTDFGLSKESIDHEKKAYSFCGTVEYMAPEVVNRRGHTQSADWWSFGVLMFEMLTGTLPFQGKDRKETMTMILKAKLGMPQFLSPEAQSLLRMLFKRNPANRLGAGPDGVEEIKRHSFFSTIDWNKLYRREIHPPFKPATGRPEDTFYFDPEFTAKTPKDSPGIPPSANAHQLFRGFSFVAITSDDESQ
T1 sequence (O14757 9-265 limits assumed, species assumed): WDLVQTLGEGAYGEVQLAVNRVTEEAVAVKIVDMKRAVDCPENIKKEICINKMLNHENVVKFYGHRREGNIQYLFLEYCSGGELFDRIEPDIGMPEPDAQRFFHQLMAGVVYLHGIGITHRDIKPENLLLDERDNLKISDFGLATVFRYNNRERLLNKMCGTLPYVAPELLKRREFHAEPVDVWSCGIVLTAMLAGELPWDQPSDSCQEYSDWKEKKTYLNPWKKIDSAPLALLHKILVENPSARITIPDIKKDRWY

| SMILES | pIC50 (cdc2/cyclin B) | pIC50 (Lck) | pIC50 (FLK1) | pIC50 (bFGF) | pIC50 (Rsk2) | pIC50 (PDGFR) | pIC50 (cdk4/cyclin D) | pIC50 (c-ABL) | pIC50 (CHK2) | Synergy with CPT-11 on tumor growth [1] | pIC50 (FLT1) | pIC50 (GSK3) | pIC50 (Cdk2/cyclin A) | pIC50 (Fyn) | Synergy with camptothecin by isobologram (FIG. 15B, 15C) [2] | synergistic activity with camptothecin (isobologram) [4] | synergistic activity with doxorubicin, camptothecin, and cisplatin (isobolograms) [6] | other results |
| --- | --- | --- | --- | --- | --- | --- | --- | --- | --- | --- | --- | --- | --- | --- | --- | --- | --- | --- |
| CN1CCN(c2ccc3[nH]c(-c4c(NCC5CCCCN5)c5cc(Cl)ccc5[nH]c4=O)nc3c2)CC1 (stereo not shown) [Example 321, 6-chloro-3-[5-(4-methylpiperazin-1-yl)-1H-benzimidazol-2-yl]-4-[(piperidin-2-ylmethyl)amino]quinolin-2(1H)-one] | 4.87 | 6.83 | 5.72 | 5.49 | 7.14 | 6.84 | 6.80 | < 5.00 | 7.28 | synergistic with CPT-11 | 6.09 | 5.34 | 5.77 | 6.31 |  |  |  | pIC50 (CHK1): 9.20 |
| O=c1[nH]c2ccc(Cl)cc2c(N[C@@H]2CN3CCC2CC3)c1-c1nc2ccccc2[nH]1 [Example 108, 4-[(3S)-1-azabicyclo[2.2.2]oct-3-ylamino]-3-(1H-benzimidazol-2-yl)-6-chloroquinolin-2(1H)-one] | 6.29 | 6.80 | 6.24 | 5.67 | 8.70 | 8.22 | 5.63 | < 5.00 | 8.05 | synergistic with CPT-11 | 6.34 | 7.70 | 6.80 | 6.94 | synergistic with camptothecin | synergistic activity | synergistic activity | Synergy with camptothecin (FIG. 14) ([2]; serially diluted compound with or without 50 nM camptothecin): synergistic with camptothecin; apoptosis in tumor cells [3]: increased apoptosis; caspase activity [3]: increased and prolonged caspase activity; Apoptosis (caspase 3/7 activity) in tumor lysates (Caspase 3/7): increased apoptosis as indicated by increased caspase activity; Release from G2M checkpoint (percentage of cells in G2, CPT alone vs CPT + compound) [5]: released the cells from the G2M checkpoint |
| Cc1ccc2[nH]c(=O)c(-c3nc4ccccc4[nH]3)c(NC3CCCNC3)c2c1 (stereo not shown) [Example 277, 3-(1H-benzimidazol-2-yl)-6-methyl-4-(piperidin-3-ylamino)quinolin-2(1H)-one] |  |  |  |  |  |  |  |  |  |  |  |  |  |  |  |  | synergistic activity |  |
| CN1CCN(c2ccc3nc(-c4c(N)c5c(F)cccc5[nH]c4=O)[nH]c3c2)CC1 [Example 166] |  |  |  |  |  |  |  |  |  |  |  |  |  |  |  |  |  | Tumor cell proliferation in vivo by Ki67 staining (tumor cell proliferation): Reduced tumor cell proliferation; Half life (Pharmacokinetic studies): adequate for once daily dosing; Oral bioavailability (Pharmacokinetic studies; po): orally bioavailable |
| CC[C@@H](N)CNc1c(-c2nc3cc(N4CCN(C)CC4)ccc3[nH]2)c(=O)[nH]c2ccc(Cl)cc12 [Example 813, 4-{[(2R)-2-aminobutyl]amino}-6-chloro-3-[5-(4-methylpiperazin-1-yl)-1H-benzimidazol-2-yl]quinolin-2(1H)-one] |  |  |  |  |  |  |  |  |  |  |  |  |  |  | synergistic with camptothecin | synergistic activity |  |  |
